Read-outs that look alike come from different tables or passages of the source.

The source of these data is US20050049293A1, “Use of cholinesterase antagonists to treat insulin resistance” (priority 2002, published 2005).

For test [1], the system named is hepatic muscarinic receptors (insulin resistance). The note with it: cats, cited from earlier work.
Test [2] has as its system HISS-dependent insulin resistance in sucrose-fed rats. The test is described as follows: RIST during neostigmine infusion in liquid sucrose-fed rats (Example 3). The class given is in vivo. The note with it: portal vein infusion. The source says: Since both forms of diet produced the same degree of HDIR, the model of sucrose feeding using the liquid diet was used to determine whether this HDIR was reversible with the anticholinesterase agent, neostigmine.
The model of insulin resistance produced by the 35% liquid sucrose diet (in addition to regular rodent food pellets and normal drinking water) was identical to the protocol described above for the assessment of HDIR in sucrose-fed rats.
The surgical preparation was identical to that described above for sucrose-fed rats tested for HDIR. In addition, a laparotomy and portal vein cannulation were carried out. […] Following a laporotomy, the portal vein was cannulated.
After conducting a control RIST, neostigmine was infused into the portal vein for at least […] before a second RIST was conducted to determine if this agent could reverse the insulin resistance. The doses of neostigmine were 1 and 2 μg/kg/min.

In test [3] the test system is atropine-induced HISS-dependent insulin resistance (HDIR). The test is described as follows: Rapid insulin sensitivity test (RIST) in atropine model of 75% HDIR, reversal with neostigmine (Example 1). The note with it: neostigmine 1 μg/kg/min ipv.
Where [4] appears, read: control RIST index 94.8±11.2 mg/kg.

Take `COc1ccccc1CNCCCCCCNCCCCCCCCNCCCCCCNCc1ccccc1OC` [methoctramine]: the “Dose achieving a similar degree of insulin resistance” value in test [1] (M2 selective antagonist) was 10^−6 μmol/kg.
On to `CN1CCN(CC(=O)N2c3ccccc3C(=O)Nc3cccnc32)CC1` [pirenzepine], for which the “Dose achieving a similar degree of insulin resistance” value in test [1] (M1 muscarinic selective antagonist) is 10^−7 mmol/kg.
Regarding `CN(C)C(=O)Oc1cccc([N+](C)(C)C)c1` [neostigmine], the “Reversal of insulin resistance at 1 μg/kg/min” value in test [2] (FIG. 3) is on record as “did not produce a reversal of insulin resistance”. In test [2] (setting [4]), the “RIST index during neostigmine 1 μg/kg/min” value was 80.9 ± 27.3 mg/kg and the “RIST index during neostigmine 2 μg/kg/min” value came to 178.0 ± 17.7 mg/kg. Further, the “RIST index during constant infusion of neostigmine” value in test [3] (after atropine-induced 75% HDIR (blocked state 90.5±[…])) is 152.6 ± 15.2 mg/kg. Further, the “Reversal of HDIR produced by atropine” value in test [3] (FIG. 1) is recorded as “able to reverse the HDIR”.
